In patent publication US20230111310A1, “CARBOXYLIC ACID DERIVATIVE-SUBSTITUTED IMINO ARYL COMPOUND, PREPARATION METHOD THEREFOR, HERBICIDAL COMPOSITION AND USE THEREOF” (Qingdao Kingagroot Chemical Compound Co., Ltd., priority 2020, published 2023):

Experiments:
Assay in all cases: Weeding effect in post-emergence stage
Type in all cases: in vivo
Echinochloa crusgalli = details: for Weeding effect in post-emergence stage, Echinochloa crusgalli (level): fresh weight control rate level; for Weeding effect in post-emergence stage, Echinochloa crusgalli: level of fresh weight growth control rate
Method in brief: (§1)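 Post-emergence spray tower; 2-3 leaf plants (2 wk after sowing, soil pots, greenhouse). Formulation: acetone, Tween 80, methyl oleate EC 1.5 liter/ha as synergist, water. Rates 500–7.5 g/ha. Growth control rate read at 3 wk; n=3, averaged.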

Digitaria sanguinalis = details: for Weeding effect in post-emergence stage, Digitaria sanguinalis (level): fresh weight control rate level; for Weeding effect in post-emergence stage, Digitaria sanguinalis: level of fresh weight growth control rate
Method in brief: as §1

Eleusine indica = details: for Weeding effect in post-emergence stage, Eleusine indica (level): fresh weight control rate level; for Weeding effect in post-emergence stage, Eleusine indica: level of fresh weight growth control rate
Method in brief: as §1

Setaria viridis = details: for Weeding effect in post-emergence stage, Setaria viridis (level): fresh weight control rate level; for Weeding effect in post-emergence stage, Setaria viridis: level of fresh weight growth control rate
Method in brief: as §1

Alopecurus japonicus = details: for Weeding effect in post-emergence stage, Alopecurus japonicus (level): fresh weight control rate level; for Weeding effect in post-emergence stage, Alopecurus japonicus: level of fresh weight growth control rate
Method in brief: as §1

Abutilon theophrasti = details: for Weeding effect in post-emergence stage, Abutilon theophrasti (level): fresh weight control rate level; for Weeding effect in post-emergence stage, Abutilon theophrasti: level of fresh weight growth control rate
Method in brief: as §1

Row | Compound | Weeding effect in post-emergence stage, Echinochloa crusgalli (Echinochloa crusgalli; Dose 15 g/ha) | Weeding effect in post-emergence stage, Digitaria sanguinalis (Digitaria sanguinalis; Dose 15 g/ha) | Weeding effect in post-emergence stage, Eleusine indica (Eleusine indica; Dose 15 g/ha) | Weeding effect in post-emergence stage, Setaria viridis (Setaria viridis; Dose 15 g/ha) | Weeding effect in post-emergence stage, Alopecurus japonicus (Alopecurus japonicus; Dose 15 g/ha) | Weeding effect in post-emergence stage, Abutilon theophrasti (Abutilon theophrasti; Dose 15 g/ha) | also measured
1 | CC(O/N=C/c1cc(-n2c(=O)n(C)c(=S)n(C)c2=O)c(F)cc1Cl)C(=O)OCC(F)(F)F (stereo not drawn) [Compound 439] |  |  |  |  |  |  | Weeding effect in post-emergence stage, Echinochloa crusgalli (level) (Echinochloa crusgalli; Dose 30 g/ha): 5 (Level 5: growth control rate is above 85%); Weeding effect in post-emergence stage, Digitaria sanguinalis (level) (Digitaria sanguinalis; Dose 30 g/ha): 5 (Level 5: growth control rate is above 85%); Weeding effect in post-emergence stage, Eleusine indica (level) (Eleusine indica; Dose 30 g/ha): 5 (Level 5: growth control rate is above 85%); Weeding effect in post-emergence stage, Setaria viridis (level) (Setaria viridis; Dose 30 g/ha): 5 (Level 5: growth control rate is above 85%); Weeding effect in post-emergence stage, Alopecurus japonicus (level) (Alopecurus japonicus; Dose 30 g/ha): 5 (Level 5: growth control rate is above 85%); Weeding effect in post-emergence stage, Abutilon theophrasti (level) (Abutilon theophrasti; Dose 30 g/ha): 5 (Level 5: growth control rate is above 85%)
2 | CCCCCCCOC(=O)[C@@H](C)O/N=C/c1cc(-n2c(=O)cc(C(F)(F)F)n(C)c2=O)c(F)cc1Cl [205(R)] | 5 (Level 5: growth control rate is above 85%) | 5 (Level 5: growth control rate is above 85%) | 5 (Level 5: growth control rate is above 85%) | 5 (Level 5: growth control rate is above 85%) | 5 (Level 5: growth control rate is above 85%) | 5 (Level 5: growth control rate is above 85%) | 
3 | C[C@@H](O/N=C/c1cc(-n2c(=O)n(C)c(=S)n(C)c2=O)c(F)cc1Cl)C(=O)OCCCC(F)(F)F [12(R)] | 5 (Level 5: growth control rate is above 85%) | 5 (Level 5: growth control rate is above 85%) | 5 (Level 5: growth control rate is above 85%) | 5 (Level 5: growth control rate is above 85%) | 5 (Level 5: growth control rate is above 85%) | 5 (Level 5: growth control rate is above 85%) | 
4 | COC(=O)[C@@H](C)O/N=C/c1cc(-n2c(=S)cc(C(F)(F)F)n(C)c2=S)c(F)cc1C(F)(F)F [392(R)] |  |  |  |  |  |  | Weeding effect in post-emergence stage, Echinochloa crusgalli (level) (Echinochloa crusgalli; Dose 60 g/ha): 5 (Level 5: growth control rate is above 85%); Weeding effect in post-emergence stage, Digitaria sanguinalis (level) (Digitaria sanguinalis; Dose 60 g/ha): 5 (Level 5: growth control rate is above 85%); Weeding effect in post-emergence stage, Eleusine indica (level) (Eleusine indica; Dose 60 g/ha): 5 (Level 5: growth control rate is above 85%); Weeding effect in post-emergence stage, Setaria viridis (level) (Setaria viridis; Dose 60 g/ha): 5 (Level 5: growth control rate is above 85%); Weeding effect in post-emergence stage, Alopecurus japonicus (level) (Alopecurus japonicus; Dose 60 g/ha): 5 (Level 5: growth control rate is above 85%); Weeding effect in post-emergence stage, Abutilon theophrasti (level) (Abutilon theophrasti; Dose 60 g/ha): 5 (Level 5: growth control rate is above 85%)
5 | CC(O/N=C/c1cc(-n2c(=O)n(C)c(=S)n(C)c2=O)c(F)cc1Cl)C(=O)OCC1CC1 (racemic) [Compound 9] | 5 (Level 5: growth control rate is above 85%) | 5 (Level 5: growth control rate is above 85%) | 5 (Level 5: growth control rate is above 85%) | 5 (Level 5: growth control rate is above 85%) | 5 (Level 5: growth control rate is above 85%) | 5 (Level 5: growth control rate is above 85%) | 
6 | COC(=O)C(C)O/N=C/c1cc(-n2c(=O)cc(C(F)(F)F)n(C)c2=O)c(F)cc1C#N (stereo not drawn) [Compound 344] | 5 (Level 5: growth control rate is above 85%) | 5 (Level 5: growth control rate is above 85%) | 5 (Level 5: growth control rate is above 85%) | 5 (Level 5: growth control rate is above 85%) | 5 (Level 5: growth control rate is above 85%) | 5 (Level 5: growth control rate is above 85%) | 
7 | CC(O/N=C/c1cc(-n2c(=O)cc(C(F)(F)F)n(C)c2=O)c(F)cc1Cl)C(=O)OCC1(C#N)CC1 (stereo not drawn) [Compound 447] |  |  |  |  |  |  | Weeding effect in post-emergence stage, Echinochloa crusgalli (level) (Echinochloa crusgalli; Dose 15 g/ha): 5 (Level 5: growth control rate is above 85%); Weeding effect in post-emergence stage, Digitaria sanguinalis (level) (Digitaria sanguinalis; Dose 15 g/ha): 5 (Level 5: growth control rate is above 85%); Weeding effect in post-emergence stage, Eleusine indica (level) (Eleusine indica; Dose 15 g/ha): 5 (Level 5: growth control rate is above 85%); Weeding effect in post-emergence stage, Setaria viridis (level) (Setaria viridis; Dose 15 g/ha): 5 (Level 5: growth control rate is above 85%); Weeding effect in post-emergence stage, Alopecurus japonicus (level) (Alopecurus japonicus; Dose 15 g/ha): 5 (Level 5: growth control rate is above 85%); Weeding effect in post-emergence stage, Abutilon theophrasti (level) (Abutilon theophrasti; Dose 15 g/ha): 5 (Level 5: growth control rate is above 85%)
8 | CCOC(=O)COC(=O)C(C)O/N=C/c1cc(-n2c(=O)n(C)c(=S)n(C)c2=O)c(F)cc1Cl (racemic) [Compound 17] | 5 (Level 5: growth control rate is above 85%) | 5 (Level 5: growth control rate is above 85%) | 5 (Level 5: growth control rate is above 85%) | 5 (Level 5: growth control rate is above 85%) | 5 (Level 5: growth control rate is above 85%) | 5 (Level 5: growth control rate is above 85%) | 
9 | CON(C)C(=O)[C@@H](C)O/N=C/c1cc(-n2c(=O)cc(C(F)(F)F)n(C)c2=O)c(F)cc1Cl [419(R)] |  |  |  |  |  |  | Weeding effect in post-emergence stage, Echinochloa crusgalli (level) (Echinochloa crusgalli; Dose 15 g/ha): 5 (Level 5: growth control rate is above 85%); Weeding effect in post-emergence stage, Digitaria sanguinalis (level) (Digitaria sanguinalis; Dose 15 g/ha): 5 (Level 5: growth control rate is above 85%); Weeding effect in post-emergence stage, Eleusine indica (level) (Eleusine indica; Dose 15 g/ha): 5 (Level 5: growth control rate is above 85%); Weeding effect in post-emergence stage, Setaria viridis (level) (Setaria viridis; Dose 15 g/ha): 5 (Level 5: growth control rate is above 85%); Weeding effect in post-emergence stage, Alopecurus japonicus (level) (Alopecurus japonicus; Dose 15 g/ha): 5 (Level 5: growth control rate is above 85%); Weeding effect in post-emergence stage, Abutilon theophrasti (level) (Abutilon theophrasti; Dose 15 g/ha): 5 (Level 5: growth control rate is above 85%)
10 | CCOC(O/N=C/c1cc(-n2c(=O)cc(C(F)(F)F)n(C)c2=O)c(F)cc1Cl)C(=O)OC (stereo not drawn) [Compound 331] | 5 (Level 5: growth control rate is above 85%) | 5 (Level 5: growth control rate is above 85%) | 5 (Level 5: growth control rate is above 85%) | 5 (Level 5: growth control rate is above 85%) | 5 (Level 5: growth control rate is above 85%) | 5 (Level 5: growth control rate is above 85%) | 
11 | COC(=O)C(C)(C)OC(=O)[C@@H](C)O/N=C/c1cc(-n2c(=O)cc(C(F)(F)F)n(C)c2=O)c(F)cc1Cl [243(R)] | 5 (Level 5: growth control rate is above 85%) | 5 (Level 5: growth control rate is above 85%) | 5 (Level 5: growth control rate is above 85%) | 5 (Level 5: growth control rate is above 85%) | 5 (Level 5: growth control rate is above 85%) | 5 (Level 5: growth control rate is above 85%) | 
12 | COC(=O)C(C)O/N=C/c1cc(-n2c(=O)cc(C(F)(F)F)n(C)c2=S)c(F)cc1Br (racemic) [Compound 394] |  |  |  |  |  |  | Weeding effect in post-emergence stage, Echinochloa crusgalli (level) (Echinochloa crusgalli; Dose 60 g/ha): 5 (Level 5: growth control rate is above 85%); Weeding effect in post-emergence stage, Digitaria sanguinalis (level) (Digitaria sanguinalis; Dose 60 g/ha): 5 (Level 5: growth control rate is above 85%); Weeding effect in post-emergence stage, Eleusine indica (level) (Eleusine indica; Dose 60 g/ha): 5 (Level 5: growth control rate is above 85%); Weeding effect in post-emergence stage, Setaria viridis (level) (Setaria viridis; Dose 60 g/ha): 5 (Level 5: growth control rate is above 85%); Weeding effect in post-emergence stage, Alopecurus japonicus (level) (Alopecurus japonicus; Dose 60 g/ha): 5 (Level 5: growth control rate is above 85%); Weeding effect in post-emergence stage, Abutilon theophrasti (level) (Abutilon theophrasti; Dose 60 g/ha): 5 (Level 5: growth control rate is above 85%)
13 | CCC(O/N=C/c1cc(-n2c(=O)cc(C(F)(F)F)n(C)c2=O)c(F)cc1Cl)C(=O)OC (stereo not drawn) [Compound 315] | 5 (Level 5: growth control rate is above 85%) | 5 (Level 5: growth control rate is above 85%) | 5 (Level 5: growth control rate is above 85%) | 5 (Level 5: growth control rate is above 85%) | 5 (Level 5: growth control rate is above 85%) | 5 (Level 5: growth control rate is above 85%) | 
14 | CCOC(=O)C(C)O/N=C/c1cc(-n2c(=O)n(C)c(=S)n(C)c2=S)c(F)cc1Br (racemic) [Compound 161] | 5 (Level 5: growth control rate is above 85%) | 4 (Level 4: growth control rate is greater than or equal to 60% and less than 85%) | 5 (Level 5: growth control rate is above 85%) | 5 (Level 5: growth control rate is above 85%) | 4 (Level 4: growth control rate is greater than or equal to 60% and less than 85%) | 5 (Level 5: growth control rate is above 85%) | 
15 | COC(=O)C(C)NN=Cc1cc(-n2c(=O)cc(C(F)(F)F)n(C)c2=O)c(F)cc1Cl (stereo not drawn) [Compound 919] |  |  |  |  |  |  | Weeding effect in post-emergence stage, Echinochloa crusgalli (level) (Echinochloa crusgalli; Dose 30 g/ha): 5 (Level 5: growth control rate is above 85%); Weeding effect in post-emergence stage, Digitaria sanguinalis (level) (Digitaria sanguinalis; Dose 30 g/ha): 5 (Level 5: growth control rate is above 85%); Weeding effect in post-emergence stage, Eleusine indica (level) (Eleusine indica; Dose 30 g/ha): 5 (Level 5: growth control rate is above 85%); Weeding effect in post-emergence stage, Setaria viridis (level) (Setaria viridis; Dose 30 g/ha): 5 (Level 5: growth control rate is above 85%); Weeding effect in post-emergence stage, Alopecurus japonicus (level) (Alopecurus japonicus; Dose 30 g/ha): 5 (Level 5: growth control rate is above 85%); Weeding effect in post-emergence stage, Abutilon theophrasti (level) (Abutilon theophrasti; Dose 30 g/ha): 5 (Level 5: growth control rate is above 85%)
